Experimental data published in patent US8187876B2, “Expansion of stem/progenitor cells by inhibition of enzymatic reactions catalyzed by the Sir2 family of enzymes” (Gamida Cell Ltd., priority 2004, dated 2012).

Key:
Type in all cases: cell-based, human
CD34+ cells [1] = test: Ex vivo expansion of CD34+ cell cultures, three weeks, CD34+ cells re-selected and enumerated; details: 5 μM nicotine amide; cytokines SCF, TPO, FLt3, IL-6, IL-3; only cytokine treated cultures 35×10^4
Experimental: Sample collection and purification—Cells were obtained from umbilical cord blood (CB) after a normal full-term delivery (informed consent was given). Samples were collected and processed within 12 hours postpartum. Blood was mixed with 3% Gelatin (Sigma, St. Louis, Mo.) and let sedimented for 30 minutes to remove most red blood cells (RBC). The leukocyte-rich fraction was harvested and layered on Ficoll-Hypaque gradient (1.077 g/mL; Sigma), and centrifuged at 400 g for 30 minutes. […]
Purification of CDD133+ and CD34+ cells—To purify CDD133+ or CD34^+ cells, the mononuclear cell fraction was subjected to two cycles of immuno-magnetic separation using the “MiniMACS or Clinimax CD34 progenitor cell isolation kit” (Miltenyi Biotec, Aubun, Calif.) following the manufacturer's recommendations. The purity of the CD34^+ population obtained ranged from 95% to 98% as evaluated by flow cytometry (see below). […]
At weekly intervals, cell cultures were semi-depopulated and supplemented with fresh medium, serum and cytokines. At various time points, cells were harvested, counted following staining with trypan blue, and cell morphology was determined on cytospin (Shandon, UK)-prepared smears stained with May-Grunwald/Giemsa solutions. […]

CD34+ cells [2] = test: FACS immunophenotyping of cultured/re-selected CD34+ cells for stem/early progenitor cells
Experimental: Immunophenotyping—For immuno-phenotyping, cells were harvested, washed with phosphate buffered saline (PBS), containing 1% BSA and 0.1% sodium azide, and stained by incubation (at 4° C. for 60 min) with phycoerythrin (PE)-conjugated anti CD38 (Immunoquality Products, The Netherlands), flourescein isothiocyanate (FITC)-conjugated anti CD34 (Miltenyi Biotec) both at 5 μl per 50 μl cell suspension. The cells were then washed with the same buffer and analyzed, using FACS-calibur flow cytometer (Becton-Dickinson, Immunofluorometry systems, Mountain View, Calif.). Cells were passed at a rate of about 1000 cells/second, using saline as the sheath fluid. A 488 nm argon laser beam served as the light source for excitation. Emission of ten thousand cells was measured using logarithmic amplification and calculated using the cellQuest software. Background noise was determined using isotype control stained cells. Arithmetic Mean Fluorescence Channel (MFC) of the negative and positive populations and the stained cells to noise (S/N) ratio were calculated.
The highly purified, re-selected CD34+ cell fraction from a three week culture was FACS analyzed for stem/early progenitor cells: CD34+CD38− (FIG. 3), CD34+Lin−(CD3, 4, 19, 38, 33, 14 and 15 minus, FIG. 4) as well as for the percentages of CD38-HLA-DR minus cells (FIG. 5). […] For example, at 5 uM nicotinamide the percentages of CD34+Lin− cells were 4.11 whereas in control cultures only 0.02%, the percentages of CD34+CD38− cells were 34.6 in nicotinamide cultures and only 0.67 in control.
The CD34+CD38− cells are shown in the upper left part of the plot. FIG. 6b, the cells were stained with CD34(PE) and Lin(38, 33, 4, 3, 15, 14, 19, 61) (FITC). The CD34+Lin− cells are shown in the upper left part of the plot. FIG. 6c, the cells were stained for 34PE and HLA-DR and CD38 FITC. The CD34+/CD38− HLA-DR− cells are shown in the upper left part of the plot.

CD34+ cells [3] = test: Assay for Colony Forming Units (CFUc) in semi-solid medium; details: 200 mM Splitomicin for first 3 weeks; week 5; colonies scored after 14 days
Experimental: Assay for Colony Forming Units (CFU)—Cells were cloned in semi-solid, methylcellulose-containing medium supplemented with 2 IU/mL erythropoietin (Eprex, Cilag AG Int., Switzerland), stem cell factor and IL-3, both at 20 ng/mL, G-CSF and GM-CSF, both at 10 ng/mL (all from Perpo Tech). Cultures were incubated for 14 days at 37° C. in humidified atmosphere of 5% CO2 in air.
Cell culturing—Cell culturing was effected was described above. Specifically, cultures were initiated with a total of 1.2×10^5 CD34+ cells in cytokine-supplemented medium, with or without (control) […] Splitomicin. From week 3 and on all cultures were supplemented with cytokines only. On week 5 cells were enumerated, numbers of CFUc were determined and CD34+ cells were re-isolated from 10 ml cultures, counted and accumulative numbers per culture were calculated.

CD34+ cells [4] = test: Two phase culture system: long-term expansion of CD34+ cell cultures (3-week treatment phase, then cytokines only); details: 200 mM Splitomicin for first 3 weeks
Experimental: Two phase culture system—Purified CD34+ cells were cultured in culture bags (American Fluoroseal Co. Gaithersburg, Md., USA) at a concentration of 1×10^4 cells/ml in MEMα/10% FCS containing the following human recombinant cytokines: Thrombopoietin (TPO), interleukin-6 (IL-6), FLT-3 ligand and stem cell factor (SCF), each at a final concentration of 50 ng/ml (Perpo Tech, Inc., Rocky Hill, N.J., USA), with or without Nicotinamide or Sirtinol or Splitomicin and incubated at 37° C. in a humidified atmosphere of 5% CO2 in air. Until week 3, the cultures were topped weekly with the same volume of fresh medium, Nicotinamide or Sirtinol or Splitomicin and growth factors. From week three and up to the termination of the experiments the cultures were weekly demi-depopulated and supplemented with cytokines only. Cells were counted following staining with trypan blue. At various time points, harvested cells were used to assay the content of colony forming units in culture (CFUc), enumeration of CD34+ cells following re-selection and immunophenotype analysis. Cell morphology was determined on cytospin (Shandon). […] On week 5 cells were enumerated, numbers of CFUc were determined and CD34+ cells were re-isolated from 10 ml cultures, counted and accumulative numbers per culture were calculated.

| SMILES | CD34+ cells re-selected after three week expansion (CD34+ cells [1]) | percentages of CD34+CD38− cells in re-selected CD34+ fraction (CD34+ cells [2]; 5 uM nicotinamide, three week culture, control 0.67) [%] | percentages of CD34+Lin− cells in re-selected CD34+ fraction (CD34+ cells [2]; 5 uM nicotinamide, three week culture, control cultures 0.02%) [%] | colony formation (CFU analysis), self-renewal potential (CD34+ cells [3]) | increase in CD34+ cells (CD34+ cells [4]; CD34+ cells re-isolated on week 5) | total cell expansion vs cytokine-only control (CD34+ cells [4]; counted on week 5) | CD34+/CD38− population shift in FACS dot plot (CD34+ cells [2]; 75 mM splitomicin) |
| --- | --- | --- | --- | --- | --- | --- | --- |
| NC(=O)c1cccnc1 [Nicotinamide, nicotinamide] | 180×10^4 | 34.6 | 4.11 |  |  |  |  |
| O=C1CCc2c(ccc3ccccc23)O1 [Splitomicin] |  |  |  | increase in colony formation | about 30% | more than 2 fold | remarkable up-left shift |
